According to patent publication US10183006B2, “Methods of therapeutic monitoring of nitrogen scavenging drugs” (Horizon Therapeutics, LLC, priority 2011, dated 2019):

Legend:
[1] = Relationship between PAA levels and neurological AEs in UCD patients (switchover and 12-month protocols); assay type: in vivo, human; conditions: short term switchover
[2] = Two long term studies, HPN-100 for 12 months in pediatric UCD patients: monthly fasting ammonia and hyperammonemia episodes; assay type: in vivo, human
Source text: The relationship between reducing ammonia burden by maintaining fasting ammonia at or close to half ULN and neuropsychological outcomes in pediatric UCD patients was explored in clinical trials. […] These patients underwent 24-hr serial sample collection in a confined setting where the last sample at 24 hr was considered fasting and under supervision of the study personnel. At the end of treatment with HPN-100 the average fasting ammonia at 24-hr time point was 15.5 μmol/L or less than half ULN, indicating good clinical control. These 11 patients along with another 15 pediatric patients were enrolled in two long term studies and received HPN-100 for 12 months, during which monthly fasting ammonia were collected. At the time of enrollment and at the end of the study, all patients underwent assessment for neuropsychological outcomes including the following: BRIEF (Behavior Rating Inventory of Executive Function) to assess day-to-day executive functioning, CBCL (Child Behavior Checklist) to evaluate internalizing (e.g., mood/anxiety) and externalizing behaviors, and WASI (Wechsler Abbreviated Scale of Intelligence) to estimate of intellectual ability. […]

[3] = Short term switch over comparison of NaPBA and HPN-100 in controlling ammonia, 24-hr serial sampling, pediatric UCD patients; assay type: in vivo, human; conditions: end of treatment with HPN-100; 11 pediatric UCD patients ages 6-17
Source text: (§1) The relationship between reducing ammonia burden by maintaining fasting ammonia at or close to half ULN and neuropsychological outcomes in pediatric UCD patients was explored in clinical trials. […] These patients underwent 24-hr serial sample collection in a confined setting where the last sample at 24 hr was considered fasting and under supervision of the study personnel. At the end of treatment with HPN-100 the average fasting ammonia at 24-hr time point was 15.5 μmol/L or less than half ULN, indicating good clinical control. These 11 patients along with another 15 pediatric patients were enrolled in two long term studies and received HPN-100 for 12 months, during which monthly fasting ammonia were collected. At the time of enrollment and at the end of the study, all patients underwent assessment for neuropsychological outcomes including the following: BRIEF (Behavior Rating Inventory of Executive Function) to assess day-to-day executive functioning, CBCL (Child Behavior Checklist) to evaluate internalizing (e.g., mood/anxiety) and externalizing behaviors, and WASI (Wechsler Abbreviated Scale of Intelligence) to estimate of intellectual ability.

[4] = Population PK model (NONMEM) and Monte Carlo dosing simulations in UCD patients; design: species or system human
Experimental: Diagnostic plots and statistical comparisons were used to select among candidate models, and covariates were assessed by graphical analyses and covariate modeling.

[5] = Neuropsychological outcomes (BRIEF, CBCL, WASI) after 12 months HPN-100 in pediatric UCD patients; assay type: in vivo, human
Source text: as §1
In pediatric patients, WASI and CBCL scores were stable in comparison to baseline. The majority of the BRIEF subscales at baseline were at or close to 65, consistent with borderline and/or clinically significant dysfunction. Among 22 pediatric subjects who completed the neuropsychological testing at 12 months, all BRIEF domains were improved (lower T scores) with means (SD) at end of study compared to baseline for Behavioral Regulation Index 53.7 (9.79) vs. 60.4 (14.03) (p<0.05); Metacognition Index 57.5 (9.84) vs. 67.5 (13.72) (p<0.001), and Global Executive Scale 56.5 (9.71) vs. 66.2 (14.02) (p<0.001).

[6] = Illustrative UCD patient cases (Patients A, B, C): blood ammonia under nitrogen scavenging drug
Source text: In certain embodiments of the methods disclosed herein, blood samples used for measuring fasting blood ammonia levels and/or ULN blood ammonias are venous blood samples. In certain embodiments, a blood sample is a plasma blood sample. Any methods known in the art may be used to obtain a plasma blood sample. For example, blood from a subject may be drawn into a tube containing heparin or ethylenediaminetetraacetic acid (EDTA). In certain embodiments, the sample can be placed on ice and centrifuged to obtain plasma within 15 minutes of collection, stored at 2-8° C. […] In other embodiments, the blood plasma sample is snap frozen, stored at ≤−18° C. […] In certain embodiments, blood samples are taken in a laboratory or hospital setting. In certain embodiments, a single fasting blood sample is used to measure fasting blood ammonia level. However, in other embodiments, multiple fasting blood samples may be obtained. In certain embodiments, a subject's blood ammonia level may be monitored throughout the day. Further, in certain embodiments, the methods disclosed herein comprise an additional step of obtaining one or more blood samples from a subject prior to or after measuring fasting blood ammonia level.
Measurement of ammonia levels in a fasting blood sample is carried out using techniques known in the art. For example, ammonia levels may be measured using a colorimetric reaction or an enzymatic reaction. In certain embodiments, a colorimetric reaction may involve the use of bromophenol blue as an ammonia indicator. In these embodiments, ammonia may react with bromophenol blue to yield a blue dye. In certain embodiments, an enzymatic reaction may involve glutamate dehydrogenase catalyzing the reductive amination of 2-oxoglutarate with NH^4+ and NADPH to form glutamate and NADP^+. The formation of NADP^+ formed is directly proportional to the amount of ammonia present in the blood sample. Therefore, the concentration of ammonia is measured based on a decrease in absorbance.
Initial dosage is determined based on body surface area or as otherwise instructed according to HPN-100 drug labeling.

[7] = HPN-100 in subjects with hepatic impairment with cirrhosis and healthy adults (Study UP 1204-002): urinary excretion; assay type: in vivo, human; conditions: for PAGN Proportion excreted post-24 hours (%), of total PAGN eliminated over 48 hours: after dosing on day 1
Experimental: (§2) To determine its pharmacokinetic (PK) and pharmacodynamic (PD) profile in patients with liver disease, clinical testing was conducted in which HPN-100 was administered orally as a single dose (100 mg/kg/day on day 1), and twice daily for 7 consecutive days (200 mg/kg/day on days 8 through 14, in two doses of 100 mg/kg per dose), to subjects with hepatic impairment with cirrhosis (Child-Pugh scores of A, B, or C) and to a gender and age-matched control group of healthy adults with normal hepatic function. On day 15, subjects received a single dose of HPN-100 (100 mg/kg). PK blood samples were taken pre-dose, at 15 and 30 minutes post-dose, and at 1, 1.5, 2, 3, 4, 6, 8, 12, and 24 hours post-dose on days 1, 8, and 15, and at 48 hours after dosing on days 1 and 15. On days 9-14, blood samples were taken pre-morning dose and at 2 hours post-morning dose. Urine was collected 0-4, 4-8, 8-12, and 12-24 hours post-dose on days 1, 8, and 15, and at 24-48 hours post-dose on days 1 and 15.

[8] = HPN-100 in subjects with hepatic impairment with cirrhosis and healthy adults: plasma metabolites; assay type: in vivo, human; conditions: all plasma samples, all subject groups
Experimental: as §2

[9] = Patient A, 3 mL dose with each meal
[10] = after dosing on day 1 (0-48 hours), Child-Pugh A
[11] = after dosing on day 1 (0-48 hours), Child-Pugh B
[12] = after dosing on day 1 (0-48 hours), Child-Pugh C
[13] = after dosing on day 1 (0-48 hours), Healthy Volunteers

Compound: O=C(CCCc1ccccc1)OCC(COC(=O)CCCc1ccccc1)OC(=O)CCCc1ccccc1 [HPN-100, glyceryl tri-[4-phenylbutyrate]]
- relationship between neurological AEs and PAA levels [1]: No statistically significant relationship
- episodes of acute hyperammonemia ([2]; during 12 month treatment, pediatric UCD patients, 9 in the 12 months before enrollment): 5
- peak ammonia, mean ([2]; during the 12 month study, 233 μmol/L before enrollment): 166 µmol/L
- average fasting ammonia at 24-hr time point [3]: 15.5 µmol/L
- fractional presystemic metabolism of PBA ([4]; adults): 43%
- slower PBA absorption when delivered as GPB vs. NaPBA ([4]; final popPK model): ~60%
- fractional presystemic metabolism of PBA ([4]; pediatric patients): 14%
- BRIEF Behavioral Regulation Index, T score mean (SD) at end of study ([5]; 22 pediatric subjects, baseline 60.4 (14.03), p<0.05): 53.7 (9.79)
- BRIEF Global Executive Scale, T score mean (SD) at end of study ([5]; 22 pediatric subjects, baseline 66.2 (14.02), p<0.001): 56.5 (9.71)
- BRIEF Metacognition Index, T score mean (SD) at end of study ([5]; 22 pediatric subjects, baseline 67.5 (13.72), p<0.001): 57.5 (9.84)
- WASI and CBCL scores in comparison to baseline ([5]; pediatric patients): stable
- fasting blood ammonia level ([6]; Patient A, adult UCD, 9 mL/day for at least 7 days, 52 μmol/L before treatment): 33 µmol/L
- average daily ammonia [6, 9]: 66 µmol/L
- maximum ammonia after dinner [6, 9]: 95 µmol/L
- fasting ammonia level ([6]; Patient A, 12 mL total or 4 mL TID for at least 7 days): 15 µmol/L
- fasting blood ammonia level ([6]; Patient B, 3.5 mL 3 times a day for at least 7 days): 17 µmol/L
- urinary PAGN Amount Excreted ([7]; after dosing on day 1 (0-24 hours), Child-Pugh A (n = 8)): 15553 µmol
- urinary PAGN Amount Excreted ([7]; after dosing on day 1 (0-24 hours), Child-Pugh B (n = 8)): 16847 µmol
- urinary PAGN Amount Excreted ([7]; after dosing on day 1 (0-24 hours), Child-Pugh C (n = 8)): 19291 µmol
- urinary PAGN Amount Excreted ([7]; after dosing on day 1 (0-24 hours), Healthy Volunteers (n = 8)): 14903 µmol
- PAGN Mole % of dose excreted [7, 10]: 47.1 Mole %
- urinary PAGN Amount Excreted [7, 10]: 18386 µmol
- PAGN Mole % of dose excreted [7, 11]: 44.9 Mole %
- urinary PAGN Amount Excreted [7, 11]: 19902 µmol
- PAGN Mole % of dose excreted [7, 12]: 48.5 Mole %
- urinary PAGN Amount Excreted [7, 12]: 20854 µmol
- PAGN Mole % of dose excreted [7, 13]: 42.2 Mole %
- urinary PAGN Amount Excreted [7, 13]: 17869 µmol
- PAGN Proportion excreted post-24 hours (%), of total PAGN eliminated over 48 hours ([7]; Child-Pugh A): 15.5%
- PAGN Proportion excreted post-24 hours (%), of total PAGN eliminated over 48 hours ([7]; Child-Pugh B): 14.5%
- PAGN Proportion excreted post-24 hours (%), of total PAGN eliminated over 48 hours ([7]; Child-Pugh C): 8.8%
- PAGN Proportion excreted post-24 hours (%), of total PAGN eliminated over 48 hours ([7]; Healthy Volunteers): 16.9%
- urinary PAGN Amount Excreted ([7]; after dosing on day 8 (0-12 hours), after first 100 mg/kg morning dose, Child-Pugh A): 16068 µmol
- urinary PAGN Amount Excreted ([7]; after dosing on day 8 (0-12 hours), after first 100 mg/kg morning dose, Child-Pugh B): 13179 µmol
- urinary PAGN Amount Excreted ([7]; after dosing on day 8 (0-12 hours), after first 100 mg/kg morning dose, Child-Pugh C): 15428 µmol
- urinary PAGN Amount Excreted ([7]; after dosing on day 8 (0-12 hours), after first 100 mg/kg morning dose, Healthy Volunteers): 10195 µmol
- PAGN Mole % of dose excreted ([7]; after dosing on day 8 (0-12 hours), Child-Pugh A): 40.6 Mole %
- PAGN Mole % of dose excreted ([7]; after dosing on day 8 (0-12 hours), Child-Pugh B): 29.9 Mole %
- PAGN Mole % of dose excreted ([7]; after dosing on day 8 (0-12 hours), Child-Pugh C): 44.6 Mole %
- PAGN Mole % of dose excreted ([7]; after dosing on day 8 (0-12 hours), Healthy Volunteers): 24.5 Mole %
- PAGN Mole % of dose excreted ([7]; after dosing on day 15 (0-48 hours), % of the single morning dose of day 15, Child-Pugh A): 79.6 Mole %
- PAGN Mole % of dose excreted ([7]; after dosing on day 15 (0-48 hours), % of the single morning dose of day 15, Child-Pugh B): 58.2 Mole %
- PAGN Mole % of dose excreted ([7]; after dosing on day 15 (0-48 hours), % of the single morning dose of day 15, Child-Pugh C): 85.0 Mole %
- PAGN Mole % of dose excreted ([7]; after dosing on day 15 (0-48 hours), % of the single morning dose of day 15, Healthy Volunteers): 68.6 Mole %
- urinary PAGN Amount Excreted ([7]; after dosing on day 15 (0-48 hours), Child-Pugh A): 31431 µmol
- urinary PAGN Amount Excreted ([7]; after dosing on day 15 (0-48 hours), Child-Pugh B): 25152 µmol
- urinary PAGN Amount Excreted ([7]; after dosing on day 15 (0-48 hours), Child-Pugh C): 30752 µmol
- urinary PAGN Amount Excreted ([7]; after dosing on day 15 (0-48 hours), Healthy Volunteers): 28716 µmol
- average conversion of HPN-100 to PAGN ([7]; after single dose administration, cirrhosis and healthy volunteers): 40-50%
- HPN-100 dose administered excreted as PAGN ([7]; day 1): 42-49%
- HPN-100 dose administered excreted as PAGN ([7]; day 8): 25-45%
- HPN-100 dose administered excreted as PAGN ([7]; day 15): 58-85%
- effect of hepatic impairment on ammonia-scavenging ability ([7]; urinary PAGN excretion, Child-Pugh groups vs healthy volunteers): no significant effect

Compound: O=C(O)CNC(=O)Cc1ccccc1 [PAG, phenylacetyl glycine]
- alternative HPN-100 metabolite level in plasma [8]: below the limit of quantification

Compound: O=C(O)CNC(=O)CCCc1ccccc1 [PBG, phenylbutyryl glycine]
- alternative HPN-100 metabolite level in plasma [8]: below the limit of quantification

Compound: NC(=O)CC[C@H](NC(=O)CCCc1ccccc1)C(=O)O [PBGN, phenylbutyryl glutamine]
- alternative HPN-100 metabolite level in plasma [8]: below the limit of quantification

Compound: O=C([O-])c1ccccc1.[Na+] [sodium benzoate, reference compound]
- fasting blood ammonia level ([6]; Patient C, adult UCD, 15 g/day for at least 7 days, 77 μmol/L before treatment): 35 µmol/L
- fasting ammonia level ([6]; Patient C, 18 grams per day for at least 7 days): 15 µmol/L

Compound: sodium phenylbutyrate [NaPBA, reference compound]
- relationship between neurological AEs and PAA levels [1]: No statistically significant relationship
- fractional presystemic metabolism of PBA ([4]; adults): 23%
- fractional presystemic metabolism of PBA ([4]; pediatric patients): 43%
- fasting blood ammonia level ([6]; Patient B, 11-year UCD patient, 24 pills per day, suspected noncompliant): 40 µmol/L
